Test results from patent US8471005B2 (Cephalon, Inc., priority 2008, dated 2013).
Where two headings read alike, the source gives them in different places. Each block holds one molecule with its values, some of them ahead of it.

Key:
ALK = molecular target: T1, ALK (Homo sapiens, UniProt Q9UM73); assay: ALK Kinase Assay (ELISA/TRF, PLC-γ substrate); assay type: biochemical; settings: read-out: ALK Potency
T1 construct: host or cells: baculovirus expression system
Method in brief: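 PLC-γ coat 10 μg/mL in TBS; ALK 30 ng/ml added to start; 37° C, 15 min; Eu-N1 PT66 antibody detection (TRF). IC50: % inhibition vs log10 [cpd], variable-slope sigmoidal fit.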

JAK2 = molecular target: T2, JAK2 (Homo sapiens, UniProt O60674); assay: Recombinant Human JAK2 Kinase Assay (TRF); assay type: biochemical; settings: read-out: JAK2 Potency
T2 construct: host or cells: baculovirus expression system
T2 sequence (O60674 whole entry): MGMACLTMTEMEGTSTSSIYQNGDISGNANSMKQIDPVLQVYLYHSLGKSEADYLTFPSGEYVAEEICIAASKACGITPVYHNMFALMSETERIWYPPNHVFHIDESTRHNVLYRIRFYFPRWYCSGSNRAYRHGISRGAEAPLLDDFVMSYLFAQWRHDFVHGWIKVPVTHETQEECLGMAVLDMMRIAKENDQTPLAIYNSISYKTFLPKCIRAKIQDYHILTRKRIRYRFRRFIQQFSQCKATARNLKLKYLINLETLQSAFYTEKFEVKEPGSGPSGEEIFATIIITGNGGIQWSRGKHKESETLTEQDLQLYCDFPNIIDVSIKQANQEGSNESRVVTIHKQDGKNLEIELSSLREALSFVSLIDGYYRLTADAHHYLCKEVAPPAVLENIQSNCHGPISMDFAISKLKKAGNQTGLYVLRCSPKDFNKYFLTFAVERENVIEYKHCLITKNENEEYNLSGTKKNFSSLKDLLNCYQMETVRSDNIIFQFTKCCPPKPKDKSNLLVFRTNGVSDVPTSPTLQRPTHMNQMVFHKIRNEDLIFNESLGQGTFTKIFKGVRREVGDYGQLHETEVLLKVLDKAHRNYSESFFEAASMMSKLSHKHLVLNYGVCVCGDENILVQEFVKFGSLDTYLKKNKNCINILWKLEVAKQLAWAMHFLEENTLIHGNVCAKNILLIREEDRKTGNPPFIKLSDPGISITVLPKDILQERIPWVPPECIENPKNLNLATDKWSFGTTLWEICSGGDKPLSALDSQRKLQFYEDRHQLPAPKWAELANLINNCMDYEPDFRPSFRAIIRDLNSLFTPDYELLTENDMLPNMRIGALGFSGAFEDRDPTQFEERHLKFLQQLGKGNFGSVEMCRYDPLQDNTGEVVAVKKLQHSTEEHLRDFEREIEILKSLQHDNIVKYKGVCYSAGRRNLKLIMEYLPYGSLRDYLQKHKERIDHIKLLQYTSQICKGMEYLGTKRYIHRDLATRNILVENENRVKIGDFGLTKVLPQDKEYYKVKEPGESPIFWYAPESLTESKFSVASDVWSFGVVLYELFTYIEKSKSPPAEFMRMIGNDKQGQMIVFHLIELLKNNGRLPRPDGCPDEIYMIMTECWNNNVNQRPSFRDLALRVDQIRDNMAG
Procedure: Compounds were tested for their ability to inhibit the kinase activity of baculovirus-expressed JAK2 using the TRF detection system. […] The plates were coated first with 100 μL/well of 10 μg/mL Neutravidin (Pierce #31000, Rockford, Ill.) in TBS at 37° C. for 2 hours, followed by 100 μL/well of 1 μg/mL 15-mer peptide substrate (biotinyl-amino-hexanoyl-[…]-amide, Infinity Biotech Research and Resource, Aston, Pa.) at 37° C. for another hour. The JAK2 assay mixture (total volume=100 μL/well) consisting of 20 mM HEPES (pH 7.2), 0.2 μM ATP, 1 mM MnCl2, 0.1% BSA, and test compound (diluted in DMSO; 2.5% DMSO final in assay) was then added to the assay plate. Enzyme (15 ng/ml JAK2) was added and the reaction was allowed to proceed at room temperature for 20 minutes. Detection of the phosphorylated product was performed by adding 100 μL/well of Eu—N1 labeled PY100 antibody (PerkinElmer Life Sciences #AD0041, Boston, Mass.).

[1] = ALK kinase inhibition, 1 μM ATP
[2] = JAK2 kinase inhibition, 0.2 μM ATP

T1 sequence (Q9UM73 19-1620): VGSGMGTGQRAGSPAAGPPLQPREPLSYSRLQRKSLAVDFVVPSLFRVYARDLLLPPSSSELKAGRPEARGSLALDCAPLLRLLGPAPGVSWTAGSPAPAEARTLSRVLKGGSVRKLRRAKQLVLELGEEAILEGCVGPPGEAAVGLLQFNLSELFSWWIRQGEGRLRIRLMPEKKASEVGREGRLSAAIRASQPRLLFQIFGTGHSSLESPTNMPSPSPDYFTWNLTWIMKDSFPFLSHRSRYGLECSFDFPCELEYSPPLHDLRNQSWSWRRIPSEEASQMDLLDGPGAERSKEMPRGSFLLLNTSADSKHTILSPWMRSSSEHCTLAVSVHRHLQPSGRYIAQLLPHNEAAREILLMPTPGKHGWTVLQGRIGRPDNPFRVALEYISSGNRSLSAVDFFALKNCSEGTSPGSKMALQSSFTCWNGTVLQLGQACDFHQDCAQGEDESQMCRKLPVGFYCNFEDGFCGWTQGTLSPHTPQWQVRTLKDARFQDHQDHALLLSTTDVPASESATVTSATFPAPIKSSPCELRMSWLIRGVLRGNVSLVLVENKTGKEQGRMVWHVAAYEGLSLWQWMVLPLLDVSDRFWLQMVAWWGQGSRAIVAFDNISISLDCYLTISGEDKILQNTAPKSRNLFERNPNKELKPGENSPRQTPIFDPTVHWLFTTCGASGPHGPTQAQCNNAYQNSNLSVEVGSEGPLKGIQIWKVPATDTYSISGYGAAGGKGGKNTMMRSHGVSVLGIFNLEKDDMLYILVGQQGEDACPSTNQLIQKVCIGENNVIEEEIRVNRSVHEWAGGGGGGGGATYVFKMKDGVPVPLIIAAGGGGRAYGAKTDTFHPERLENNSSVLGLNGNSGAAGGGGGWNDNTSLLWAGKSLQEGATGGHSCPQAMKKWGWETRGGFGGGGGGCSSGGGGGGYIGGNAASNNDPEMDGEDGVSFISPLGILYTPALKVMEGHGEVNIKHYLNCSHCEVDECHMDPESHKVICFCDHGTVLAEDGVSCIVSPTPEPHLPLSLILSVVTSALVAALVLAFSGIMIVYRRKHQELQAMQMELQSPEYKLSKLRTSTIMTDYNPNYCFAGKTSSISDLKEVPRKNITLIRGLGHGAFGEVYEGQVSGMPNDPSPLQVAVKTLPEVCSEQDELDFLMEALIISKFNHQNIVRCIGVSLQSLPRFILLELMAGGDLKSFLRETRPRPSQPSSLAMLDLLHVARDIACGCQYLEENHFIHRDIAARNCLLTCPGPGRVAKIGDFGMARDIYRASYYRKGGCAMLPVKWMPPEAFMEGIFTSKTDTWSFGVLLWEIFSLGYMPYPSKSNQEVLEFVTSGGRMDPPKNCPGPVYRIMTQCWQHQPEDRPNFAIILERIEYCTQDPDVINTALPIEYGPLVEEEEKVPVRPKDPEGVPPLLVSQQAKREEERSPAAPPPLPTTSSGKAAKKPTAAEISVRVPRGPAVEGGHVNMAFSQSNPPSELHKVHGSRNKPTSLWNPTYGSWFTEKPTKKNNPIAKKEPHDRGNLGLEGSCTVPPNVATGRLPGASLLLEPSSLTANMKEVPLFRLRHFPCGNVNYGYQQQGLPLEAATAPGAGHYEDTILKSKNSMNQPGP

SMILES: COc1cc(N2CCC[C@H](CN3CCN(C)CC3)C2)ccc1Nc1ncc2ccc(-c3ccccc3OC)n2n1 [Example 466, {2-Methoxy-4-[(R)-3-(4-methyl-piperazin-1-ylmethyl)-piperidin-1-yl]-phenyl}-[7-(2-methoxy-phenyl)-pyrrolo[2,1-f][1,2,4]triazin-2-yl]-amine]
IC50 (ALK; ALK Kinase Inhibition): < 100 nM | IC50 (JAK2; JAK2 Kinase Inhibition): 100 to 1000 nM

SMILES: COc1ccc(Cl)cc1-c1ccc2cnc(Nc3ccc4ncccc4c3)nn12 [Example 173, [7-(5-Chloro-2-methoxy-phenyl)-pyrrolo[2,1-f][1,2,4]triazin-2-yl]-quinolin-6-yl-amine]
IC50 (ALK; ALK Kinase Inhibition): 100 to 1000 nM | IC50 (JAK2; JAK2 Kinase Inhibition): < 100 nM

SMILES: COc1cc(C2CCN(C(=O)C3CCN3)CC2)ccc1Nc1ncc2ccc(-c3ccccc3N(C)S(C)(=O)=O)n2n1 (racemic) [Example 863, (±)-N-[2-(2-{4-[1-(Azetidine-2-carbonyl)-piperidin-4-yl]-2-methoxy-phenylamino}-pyrrolo[2,1-f][1,2,4]triazin-7-yl)-phenyl]-N-methyl-methanesulfonamide]
IC50 (ALK; [1]): < 100 nM | IC50 (JAK2; [2]): 1000 to 10000 nM

SMILES: CN(C)S(=O)(=O)c1cccc(Nc2ncc3cc4ccccc4n3n2)c1 [Example 273, N,N-Dimethyl-3-([1,2,4]triazino[1,6-a]indol-2-ylamino)-benzenesulfonamide]
IC50 (ALK; ALK Kinase Inhibition): > 10000 nM | IC50 (JAK2; JAK2 Kinase Inhibition): 100 to 1000 nM

SMILES: CN1CCN(c2cccc(Nc3ncc4ccc(-c5cccc(NCCS(C)(=O)=O)c5)n4n3)c2)CC1 [Example 894, {7-[3-(2-Methanesulfonyl-ethylamino)-phenyl]-pyrrolo[2,1-f][1,2,4]triazin-2-yl}-[3-(4-methyl-piperazin-1-yl)-phenyl]-amine]
IC50 (ALK; [1]): 100 to 1000 nM | IC50 (JAK2; [2]): < 100 nM

SMILES: COc1cc(CCN2CCOCC2)ccc1Nc1ncc2ccc(-c3ccccc3N(C)S(C)(=O)=O)n2n1 [Example 493, N-(2-{2-[2-Methoxy-4-(2-morpholin-4-yl-ethyl)-phenylamino]-pyrrolo[2,1-f][1,2,4]triazin-7-yl}-phenyl)-N-methyl-methanesulfonamide]
IC50 (ALK; [1]): < 100 nM | IC50 (JAK2; [2]): 100 to 1000 nM

SMILES: COc1ccc(C(=O)N2CCN(C)CC2)cc1Nc1ncc2ccc(-c3ccccc3N(C)S(C)(=O)=O)n2n1 [Example 496, N-(2-{2-[2-Methoxy-5-(4-methyl-piperazine-1-carbonyl)-phenylamino]-pyrrolo[2,1-f][1,2,4]triazin-7-yl}-phenyl)-N-methyl-methanesulfonamide]
IC50 (ALK; [1]): 1000 to 10000 nM | IC50 (JAK2; [2]): > 10000 nM

SMILES: COc1ccc(-c2ccc3cnc(Nc4ccc(F)c(N5CCOCC5)c4)nn23)cn1 [Example 392, (4-Fluoro-3-morpholin-4-yl-phenyl)-[7-(6-methoxy-pyridin-3-yl)-pyrrolo[2,1-f][1,2,4]triazin-2-yl]-amine]
IC50 (ALK; ALK Kinase Inhibition): 1000 to 10000 nM | IC50 (JAK2; JAK2 Kinase Inhibition): < 100 nM

SMILES: COc1cc(Nc2ncc3ccc(-c4cccc(Cl)c4)n3n2)cc(OC)c1OC [Example 143, [7-(3-Chloro-phenyl)-pyrrolo[2,1-f][1,2,4]triazin-2-yl]-(3,4,5-trimethoxy-phenyl)-amine]
IC50 (ALK; ALK Kinase Inhibition): 100 to 1000 nM | IC50 (JAK2; JAK2 Kinase Inhibition): < 100 nM

SMILES: COc1ccccc1-c1cc(C)c2cnc(Nc3ccc(N4CCN(C)CC4)cc3)nn12 [Example 105, [7-(2-Methoxy-phenyl)-5-methyl-pyrrolo[2,1-f][1,2,4]triazin-2-yl]-[4-(4-methyl-piperazin-1-yl)-phenyl]-amine]
IC50 (ALK; ALK Kinase Inhibition): < 100 nM | IC50 (JAK2; JAK2 Kinase Inhibition): < 100 nM

SMILES: COc1ccccc1-c1ccc2cnc(Nc3ccc(N4CCOCC4)cc3F)nn12 [Example 370, (2-Fluoro-4-morpholin-4-yl-phenyl)-[7-(2-methoxy-phenyl)-pyrrolo[2,1-f][1,2,4]triazin-2-yl]-amine]
IC50 (ALK; ALK Kinase Inhibition): 100 to 1000 nM | IC50 (JAK2; JAK2 Kinase Inhibition): < 100 nM

SMILES: CCN1CCOC(c2ccc(Nc3ncc4ccc(-c5ccccc5OC)n4n3)cc2)C1 (stereo not shown) [Example 252, [4-(4-Ethyl-morpholin-2-yl)-phenyl]-[7-(2-methoxy-phenyl)-pyrrolo[2,1-f][1,2,4]triazin-2-yl]-amine]
IC50 (ALK; ALK Kinase Inhibition): < 100 nM | IC50 (JAK2; JAK2 Kinase Inhibition): < 100 nM

SMILES: CNC(=O)c1cccc(Nc2ncc3ccc(-c4cnn(C)c4)n3n2)c1 [Example 965, N-Methyl-3-[7-(1-methyl-1H-pyrazol-4-yl)-pyrrolo[2,1-f][1,2,4]triazin-2-ylamino]-benzamide]
IC50 (ALK; [1]): 1000 to 10000 nM | IC50 (JAK2; [2]): < 100 nM

More lines, now with the values ahead:

IC50 (ALK; [1]): 100 to 1000 nM | IC50 (JAK2; [2]): < 100 nM
SMILES: Cn1cc(-c2ccc3cnc(Nc4ccc(N5CCC(N6CCOCC6)CC5)cc4)nn23)cn1 [Example 1187, [7-(1-Methyl-1H-pyrazol-4-yl)-pyrrolo[2,1-f][1,2,4]triazin-2-yl]-[4-(4-morpholin-4-yl-piperidin-1-yl)-phenyl]-amine]

IC50 (ALK; [1]): 100 to 1000 nM | IC50 (JAK2; [2]): < 100 nM
SMILES: COc1ccc(-c2ccc3cnc(Nc4ccc(OCCN5CCOCC5)cc4)nn23)cn1 [Example 1103, [7-(6-Methoxy-pyridin-3-yl)-pyrrolo[2,1-f][1,2,4]triazin-2-yl]-[4-(2-morpholin-4-yl-ethoxy)-phenyl]-amine]

IC50 (ALK; [1]): 1000 to 10000 nM | IC50 (JAK2; [2]): < 100 nM
SMILES: COc1ccccc1-c1ccc2cnc(Nc3ccc(-c4cccnc4)cc3)nn12 [Example 1091, [7-(2-Methoxy-phenyl)-pyrrolo[2,1-f][1,2,4]triazin-2-yl]-(4-pyridin-3-yl-phenyl)-amine]

IC50 (ALK; [1]): < 100 nM | IC50 (JAK2; [2]): 1000 to 10000 nM
SMILES: COc1cc(C2CCN(CC(N)=O)CC2)ccc1Nc1ncc2ccc(-c3cccnc3N(C)S(C)(=O)=O)n2n1 [Example 1257, 2-[4-(4-{7-[2-(Methanesulfonyl-methyl-amino)-pyridin-3-yl]-pyrrolo[2,1-f][1,2,4]triazin-2-ylamino}-3-methoxy-phenyl)-piperidin-1-yl]-acetamide]

IC50 (ALK; [1]): 100 to 1000 nM | IC50 (JAK2; [2]): < 100 nM
SMILES: CN1CCN(c2ccc(Nc3ncc4ccc(-c5ccc(C=O)o5)n4n3)cc2)CC1 [Example 1196, 5-{2-[4-(4-Methyl-piperazin-1-yl)-phenylamino]-pyrrolo[2,1-f][1,2,4]triazin-7-yl}-furan-2-carbaldehyde]

IC50 (ALK; [1]): 100 to 1000 nM | IC50 (JAK2; [2]): < 100 nM
SMILES: CC(C)(C)NS(=O)(=O)c1cccc(-c2ccc3cnc(Nc4ccc(C5CCN(CC(N)=O)CC5)cc4)nn23)c1 [Example 1055, 2-(4-{4-[7-(3-tert-Butylsulfamoyl-phenyl)-pyrrolo[2,1-f][1,2,4]triazin-2-ylamino]-phenyl}-piperidin-1-yl)-acetamide]

IC50 (ALK; [1]): > 10000 nM | IC50 (JAK2; [2]): < 100 nM
SMILES: COc1ccc(-c2ccc3cnc(Nc4ccc(CN5CCS(=O)(=O)CC5)cc4)nn23)cn1 [Example 1051, [4-(1,1-Dioxo-1$1(6)-thiomorpholin-4-ylmethyl)-phenyl]-[7-(6-methoxy-pyridin-3-yl)-pyrrolo[2,1-f][1,2,4]triazin-2-yl]-amine]

IC50 (ALK; ALK Kinase Inhibition): < 100 nM | IC50 (JAK2; JAK2 Kinase Inhibition): < 100 nM
SMILES: COCc1ccccc1-c1ccc2cnc(Nc3ccc(N4CCN(C)CC4)cc3)nn12 [Example 1500, [7-(2-Methoxymethyl-phenyl)-pyrrolo[2,1-f][1,2,4]triazin-2-yl]-[4-(4-methyl-piperazin-1-yl)-phenyl]-amine]

IC50 (ALK; ALK Kinase Inhibition): 100 to 1000 nM | IC50 (JAK2; JAK2 Kinase Inhibition): < 100 nM
SMILES: CC1(C)C(=O)Nc2cc(Nc3ncc4ccc(-c5ccccn5)n4n3)ccc21 [Example 1563, 3,3-Dimethyl-6-(7-pyridin-2-yl-pyrrolo[2,1-f][1,2,4]triazin-2-ylamino)-1,3-dihydro-indol-2-one]

IC50 (ALK; [1]): 100 to 1000 nM | IC50 (JAK2; [2]): < 100 nM
SMILES: Cn1cc(-c2ccc3cnc(Nc4ccc5c(c4)CCC(N4CCOCC4)CC5)nn23)cn1 (stereo not shown) [Example 1201, [7-(1-Methyl-1H-pyrazol-4-yl)-pyrrolo[2,1-f][1,2,4]triazin-2-yl]-(7-morpholin-4-yl-6,7,8,9-tetrahydro-5H-benzocyclohepten-2-yl)-amine]
